# According to patent US20220323437A1, “METHODS FOR TREATING PULMONARY ARTERIAL HYPERTENSION” (ACTELION PHARMACEUTICALS LTD, priority 2019, published 2022):
# Where two headings read alike, the source gives them in different places.
# Assay: Pharmacokinetics of selexipag and ACT-333679 after oral and i.v. selexipag in subjects with stable PAH (Phase 3 switch study)
# Assay type: in vivo, human
# Details: for AUC / Cmax: human, plasma, steady state; for AUC: read-out: AUCτ, ss Geom. Mean; for Cmax: read-out: Cmax, ss Geom. Mean
# Experimental: This was a prospective, multicenter, open-label, single-sequence, cross-over, Phase 3 study. Based on the dose of selexipag received at study entry, subjects were allocated to one of the following groups, selexipag 200-1000 μg b.i.d. or selexipag 1200-1600 μg b.i.d. See, FIG. 1. The study comprised the following periods:
# (ii) Treatment and observation period: The treatment and observation period included the following consecutive periods: • Period 1 included oral selexipag pre-treatment period for 1 day, in-hospital. This period started with intake of the morning dose of oral selexipag on Day 1 at Visit 2 and ended the following day, before initiation of the first infusion of i.v. selexipag. • Period 2 included i.v. selexipag treatment period for 36 hours [3 infusions], in-hospital. This period started in the morning of Day 2 at Visit 2 with the start of the first infusion of i.v. selexipag and ended in the evening of Day 3 at Visit 2 before the evening administration of oral selexipag. Administration of oral selexipag was interrupted during the i.v. selexipag treatment period. • Period 3 included oral selexipag post-treatment period for 7 to 11 day. This period started in the evening of Day 3 at Visit 2 with the administration of oral selexipag and ended 7-11 days later, at Visit 3.
# Selexipag was provided as a dry powder to be reconstituted as an injectable solution for i.v. administration. Before administration, selexipag dry powder was to be reconstituted and diluted with sterile 0.9% NaCl solution. Each subject received an i.v. selexipag dose that corresponded to the subject's individual stable dose of oral selexipag. […] See, Table 4.
# The intravenous infusion took place over a 87-minute period (2 infusions on Day 2 and 1 infusion on Day 3)
# The following PK endpoints were analyzed for selexipag and its active metabolite, ACT-333679, after oral selexipag in Period 1 and after i.v. selexipag administration in Period 2. See, FIG. 2. • The area under the plasma-concentration time curve (AUC) during a dose interval at steady state (AUCτ, ss). • The maximum plasma concentration at steady state (Cmax, ss). • The time to reach maximum plasma concentration at steady state (tmax, ss). • Trough plasma concentration at steady state (Ctrough, ss).
structure (smiles),measurement,setting,value
CC(C)N(CCCCOCC(=O)O)c1cnc(-c2ccccc2)c(-c2ccccc2)n1 [ACT-333679],"tmax, ss between the i.v. and oral selexipag periods",Period 2 vs Period 1,comparable
same,slope of dose proportional increase in exposure,"after i.v. selexipag, 450-1800 μg b.i.d. dose range",0.697
same,exposure after i.v. and oral selexipag administration,conclusion of the study,comparable
same,AUC,"iv, Period 2 (i.v. selexipag)",15.9 ng·h/mL
same,Cmax,"iv, Period 2 (i.v. selexipag)",2.6 ng/mL
same,AUC,Period 1 (oral selexipag),19.3 ng·h/mL
same,Cmax,Period 1 (oral selexipag),3.3 ng/mL
same,"dose-normalized geometric mean ratio (i.v./oral selexipag) for AUCτ, ss (90% CI)",i.v. to oral dose ratio 1.125,"0.80 (0.71, 0.90)"
same,"dose-normalized geometric mean ratio (i.v./oral selexipag) for Cmax, ss (90% CI)",i.v. to oral dose ratio 1.125,"0.79 (0.65, 0.96)"
